Results on 60 molecules are retold here after PubChem BioAssay AID2305 (GlaxoSmithKline (GSK), 2010).

The subject of this assay is P. falciparum 3D7 growth, pLDH absorbance. The assay is described as follows: P. falciparum 3D7 growth inhibition, dose response, strain 3D7 (AID 2305).

One may read the IC50 as the concentration at which inhibition is half-maximal. A lower IC50 goes with inhibition by little substance. `O=C(NC1CCN(CCN2CCC(c3cn(CCO)c4ccccc34)CC2)CC1)c1ccc(-c2ccc(C(F)(F)F)cc2)cc1`: the half-maximal inhibitory concentration (IC50) came out at 0.74 µM.

For `CC(OC(=O)c1ccc(C(=O)NCC2CC2)cc1)C(C)(C)C` (stereo not given), the 50% inhibitory concentration (IC50) was 0.79 µM. This IC50 and that of the molecule before are within 1.5-fold of each other.

For `NC1CCCN(Cc2cccc(-c3ccc(-c4nc5ccccc5[nH]4)s3)c2)C1` (stereo not given), the 50% inhibitory concentration (IC50) is 0.58 µM.

Regarding `Fc1ccc2nc(-c3ccc(-c4ccc(CN5CCN(CCN6CCOCC6)CC5)cc4)cc3)[nH]c2c1`, the half-inhibitory concentration (IC50) amounted to 0.18 µM.

On to `O=C(NC1CCCc2ccccc21)[C@@H]1CCCN1C(=O)c1ccc(O)c(-c2ccc(Cl)c(Cl)c2)c1` (stereo not given in full), for which the IC50 was 0.21 µM.

`COc1cccc2cc(C(=O)N[C@@H](CC(C)C)C(=O)N[C@H](/C=N/NC(=O)c3ccccc3)Cc3cnc[nH]3)oc12` yielded a half-inhibitory concentration (IC50) of 0.13 µM.

Take `CN(C)Cc1ccc(-c2cc3c(Nc4ccc(OCc5cccc(F)c5)c(Cl)c4)ncnc3s2)[nH]1`: the 50% inhibitory concentration (IC50) amounted to 0.82 µM. Compared with the last molecule, the IC50 is about 6.3-fold higher.

In the case of `FC(F)(F)c1ccc2nccc(NN=Cc3cccc(Cl)c3)c2c1`, the concentration for half-maximal inhibition (IC50) came out at 0.82 µM.

In turn, `O=C(NCCCCN1CCN(c2nsc3ccccc23)CC1)c1ccccc1C(=O)NCCCCN1CCN(c2nsc3ccccc23)CC1` came in with an IC50 of 0.89 µM. This IC50 and that of the molecule before are within 1.5-fold of each other.

In the case of `COc1ccc(C2CCN(CCN3CCC(NC(=O)c4ccc(-c5cccc(C(F)(F)F)c5C(F)(F)F)cc4)CC3)CC2)c(OC)c1`, the IC50 is 0.42 µM.

Regarding `Oc1ccc(CCNc2nc(NCc3cccc(OCc4cccc(F)c4)c3)nc(N3CCNCC3)n2)cc1`, the 50% inhibitory concentration (IC50) was 1.34 µM.

For the molecule `CCOC(=O)c1ccc(-c2cnoc2-c2cc(CC)c(OC)cc2O)o1`, the concentration for half-maximal inhibition (IC50) worked out at 0.28 µM. Against the preceding molecule, the IC50 is about 4.8-fold lower.

In turn, `Cc1cc(-c2ccc3c(c2)CCN(CCCOc2ccc4c(c2)CCN4C(=O)/C=C/c2ccccc2Cl)CC3)no1` returned an IC50 of 1.23 µM.

On to `CC(C)(C)c1cc2cc(Nc3ccnc4cc(-c5nccs5)ccc34)ccc2[nH]1`, for which the IC50 turned out to be 0.44 µM. This IC50 lies about 2.8-fold lower than the previous one.

Take `COc1cccc(CN2CCCC(OC(c3ccccc3)c3ccccc3)C2)c1O` (stereo not given): the IC50 amounted to 0.93 µM.

In turn, `O=C(NCCN1CCCCC1)c1ccc(Nc2nccc(Nc3ccc(Oc4ccccc4)cc3)n2)cc1` had an IC50 of 0.55 µM.

On to `Cc1ccc2[nH]c3c(NCCN(C)C)ncnc3c2c1`, for which the IC50 was determined as 0.84 µM.

On to `Cc1cc(C(=O)CN2C(=O)NC3(CCOc4ccccc43)C2=O)c(C)n1Cc1ccco1` (stereo not given), for which the IC50 is 0.61 µM.

For the molecule `CN1CCC(NCc2ccc(-c3cccc(S(=O)(=O)NCCc4ccccn4)c3)cc2)CC1`, the half-inhibitory concentration (IC50) worked out at 0.99 µM.

`C=CCOC(=O)N1CCC(CNCc2ccc(-c3cccc(-c4nc5ccccc5[nH]4)c3)cc2)C1` (stereo not given) had a half-inhibitory concentration (IC50) of 0.25 µM. This IC50 is about 4-fold lower than that of the molecule before.

Regarding `O=C(NCCCN1CCC(Cc2ccccc2)CC1)c1cc2c(Cl)nc3ccccc3c2s1`, the concentration for half-maximal inhibition (IC50) was 0.74 µM. Compared with the last molecule, the IC50 is about 3-fold higher.

The molecule `O=C(NCc1cccc(F)c1)Nc1cccc(-c2cccc(-c3nc4ccccc4[nH]3)c2)c1` registered a 50% inhibitory concentration (IC50) of 0.39 µM.

In the case of `COc1cc(NC(=O)N2CCc3cc(OC)c(OCCN4CCCCC4)cc32)cc(C(F)(F)F)c1`, the half-inhibitory concentration (IC50) is 1.15 µM.

Take `COc1ccc2nccc(N3CCCN(CCNCc4ccc5c(n4)NC(=O)CS5)CC3)c2n1`: the half-maximal inhibitory concentration (IC50) was determined as 0.15 µM.

`COc1ccc2c(c1)ncn2-c1cc(OCc2ccncc2Br)c(C(N)=O)s1`: the IC50 was 0.61 µM.

In turn, `CCc1nn2c(Nc3ccncc3)cc(C)nc2c1-c1ccccc1` had a half-maximal inhibitory concentration (IC50) of 0.2 µM.

Molecule `CCCCCCCCn1c2c(c(=N)c3c1CCC3)CCCC2` displayed an IC50 of 0.11 µM.

Molecule `O=S(=O)(NCCN1CCCC1)c1cccc(-c2ccccc2CNC2Cc3ccccc3C2)c1` displayed a 50% inhibitory concentration (IC50) of 0.74 µM.

With `Cc1nc(-c2cccc(C(=O)N(Cc3cncn3Cc3cccc(C(F)(F)F)c3)CC3CC3)c2)cs1`, the IC50 was 0.94 µM.

Turning to `Cc1cc(OCc2ccccc2)c(OCc2ccccc2)cc1C(O)CN(C)Cc1ccccc1` (stereo not given), the IC50 was 0.81 µM.

In turn, `CC(=O)Nc1ccc(C(=O)Nc2cccc(-c3csc(-c4nc5ccccc5[nH]4)c3)c2)cn1` displayed a half-maximal inhibitory concentration (IC50) of 0.12 µM.

Consider `COc1ccccc1-c1[nH]c2ccccc2c1CN1CCC(c2c(C)cccc2C)CC1`, for which the concentration for half-maximal inhibition (IC50) stood at 0.92 µM.

Take `CC(C)CCNCc1ccc(OCc2cccc(COc3ccc(CNCCC(C)C)cc3I)c2)c(I)c1`: the IC50 came to 0.45 µM.

`CCN(CC)CCCNC(=O)/C(=C/C=C/c1cc2cc(Cl)c(Cl)cc2[nH]1)OC`: the IC50 worked out at 1.16 µM.

For `COc1cc2ccccc2cc1CNCCCCCCNCc1cc2ccccc2cc1OC`, the IC50 was determined as 0.72 µM.

As to `N#Cc1ccc(N(CC(=O)NCCc2ccccc2)CC2CC2)c2ccccc12`, the IC50 came out at 0.73 µM. This IC50 and that of the molecule before are within 1.5-fold of each other.

`Cc1[nH]c(C)c(-c2ccc(Oc3ccc(Cl)cc3Cl)cc2)c(=O)c1Br`: the IC50 was 0.3 µM.

The molecule `O=C(c1cnn(-c2ccccc2)c1C(F)(F)F)N1CCN(c2ccnc3cc(Cl)ccc23)CC1` had an IC50 of 0.53 µM.

With `O=C(Nc1ccccc1)c1nn(CCCN2CCC(N3CCCC3)CC2)cc1-c1ccc(Cl)c(Cl)c1`, the IC50 worked out at 0.24 µM.

`c1ccc2c(Nc3ccc(Oc4ccc(Nc5c6ccccc6nc6ccccc56)cc4)cc3)c3ccccc3nc2c1`: the IC50 was found to be 0.52 µM.

Consider `C[C@@H](Oc1cc(-n2cnc3ccc(OCC4CCN(S(C)(=O)=O)CC4)cc32)sc1C(N)=O)c1ccccc1C(F)(F)F`, for which the IC50 came out at 1.02 µM.

On to `CC(CCCCCC(=O)Nc1ccc(CC(C)NCCc2cccc(Cl)c2)cc1)NCCc1cccc(Cl)c1` (stereo not given), for which the IC50 worked out at 0.95 µM. This IC50 and that of the molecule before are within 1.5-fold of each other.

For the molecule `Cc1noc(C)c1-c1ccc2c(Nc3ccccc3C(C)(C)C)c(C(=O)NCc3ccc4c(c3)OCO4)cnc2c1`, the IC50 worked out at 0.91 µM.

`CC(C)(C)NC(=O)C(c1ccc(F)cc1)N(C(=O)c1ccc(CN2CCOCC2)o1)c1ccc(C2CCCCC2)cc1` (stereo not given) yielded an IC50 of 0.92 µM.

Molecule `O=C(Nc1ccc(OC2CCN(Cc3ccsc3)C2)c(Cl)c1)c1ccc(F)cc1` (stereo not given) gave an IC50 of 0.94 µM.

`Cc1cc(N[C@@H](CC(C)C)C(=O)NCCCOC(C)C)nc(NCCc2ccc(F)cc2)n1` displayed a half-maximal inhibitory concentration (IC50) of 1.25 µM.

Consider `COc1ccc(NC(=O)[C@H](CC(C)C)Nc2cc(C)nc(NCc3cccc(C)c3)n2)cc1`, for which the IC50 was 1.02 µM.

In turn, `Cc1ccn2c(N(Cc3ccccc3)C(=O)c3ccc(Cl)c(Cl)c3)c(-c3ccccc3)nc2c1` had a half-inhibitory concentration (IC50) of 0.99 µM. This IC50 and that of the molecule before are within 1.5-fold of each other.

On to `C=C[C@H]1CN2CC[C@H]1C[C@@H]2[C@@H](O)c1ccnc2ccccc12`, for which the IC50 worked out at 0.77 µM.

`Cc1cccc2[nH]c(-c3ccc(-c4ccc(NC(=O)Nc5cccc(C#N)c5)cc4)cc3)nc12` had an IC50 of 0.11 µM.

`COc1ccc(O)c(C(=O)NCCc2ccc(OC)c(-c3ccc(C(C)(C)C)cc3)c2)c1` displayed an IC50 of 1.03 µM.

Molecule `CNC(=O)C(C)N(c1ccc(Cl)cc1)c1nc(C(C)(C)C)cs1` (stereo not given) returned a concentration for half-maximal inhibition (IC50) of 0.74 µM.

The molecule `Cc1cc(OCCCN=C(N)c2ccc3ccccc3c2)c(C(C)C)cc1Cl` came in with a half-maximal inhibitory concentration (IC50) of 0.97 µM.

`COc1ccc2nccc([C@@H](O)CN3CCC(NC(=O)c4ccc(Cl)c(Cl)c4)CC3)c2c1`: the half-inhibitory concentration (IC50) stood at 0.61 µM.

`COc1ccc(-c2cccc(NC(=O)c3cccc(Cl)c3)c2)cc1CN1CCNCC1` displayed an IC50 of 0.8 µM.

The molecule `COc1ccccc1NC(=O)Nc1ccc(-c2ccc(-c3nc4ccc(C(F)(F)F)cc4[nH]3)cc2)cc1` gave an IC50 of 0.54 µM.

As to `COc1cc(NC(=O)c2sc(-c3ccc(Cl)cc3)cc2NC(=O)CN2CCCC2)ccc1OCCN1CCCC1`, the IC50 turned out to be 0.93 µM. Compared with the last molecule, the IC50 is about 1.7-fold higher.

Take `O=C(Nc1ccc(C(=O)Oc2cccc3ccccc23)cc1)N[C@@H](Cc1ccc(O)cc1)C(=O)NC1CCN(Cc2ccc(O)cc2)C1` (stereo not given in full): the IC50 was 0.91 µM.

The molecule `COc1ccc(CNCc2ccc(-c3cccc(-c4nc5ccccc5[nH]4)c3)cc2)cc1` registered an IC50 of 0.21 µM.

Molecule `C[C@@H](NC(=O)c1nn(-c2ccc(Cl)cc2)c(=O)c2ccccc12)C(C)(C)C` displayed an IC50 of 1.12 µM.
